Data on one molecule can be found in patent publication US20260272936A1, “TREATMENT OF CANCER WITH A PARG INHIBITOR” (858 Therapeutics, Inc., priority 2023, published 2026).

The subject of one assay is HeLa cells. The experiment in a line: MMS-induced nuclear PAR accumulation, immunofluorescence imaging. It is filed as cell-based. To be noted: Homo sapiens, 50 μg/mL MMS, n=26, read-out: Geometric Mean EC50, PAR accumulation. Here is the method:
The HeLa (Cat #CCL-2) and OVCAR-3 (Cat #HTB-161) human cancer cell lines were obtained from ATCC (Manassas, Virginia, USA) and the RMUG-S(Cat #IFO50320) and Kuramochi (Cat #JCRB0098) cell lines were obtained from the National Institutes of Biomedical Innovation, Health and Nutrition's Japanese Collection of Research Bioresources (Ibaraki City, Osaka, Japan).
All cell lines were grown in an incubator at 37° C. in 5% CO2. HeLa cells were cultured in Dulbecco's Modified Medium (DMEM)+glutaMAX™ (Thermo Fisher Scientific, Waltham, MA, USA Cat #10566-016) containing 1% penicillin/streptomycin (pen/strep) (Thermo Fisher Scientific Cat #15070-063), and 10% fetal bovine serum (FBS) (Thermo Fisher Scientific Cat #A31605-02). Kuramochi cells were cultured in RPMI medium+glutaMAX™ (Thermo Fisher Scientific Cat #72400-047), 10% FBS, and 1% pen/strep. RMUG-S cells were cultured in Ham's F12 medium+glutaMAX™ (Thermo Fisher Scientific Cat #31765-035) containing 10% FBS, and 1% pen/strep. OVCAR-3 cells were cultured in RPMI medium+glutaMAX™ containing 20% FBS, 1% pen/strep, and 0.01 mg/mL bovine insulin (MilliporeSigma, Burlington, MA, USA Cat #10516-5ML).
Compound 1 EC50 values for accumulation of PAR chains were determined using an immunofluorescence high-content imaging assay of PAR staining. Cells were harvested with trypsin (Thermo Fisher Scientific, Cat #25200-056) and plated in black-walled, clear bottom 96-well Corning Costar 3603 plates (VWR, Radnor, PA, USA Cat #29444-008) at 15,000 cells/well in 100 μL normal growth media. The cells were incubated overnight at 37° C., 5% CO2. The following day, a 1000× Compound 1 concentration curve was prepared by serial dilution of Compound 1 in 100% DMSO for twelve concentrations with the highest starting final concentration of 10 μM. The 1000× test compound curve was diluted 1:200 into growth media to prepare a 5× concentration curve in 0.5% DMSO/media before addition of 25 μL of compound or 0.5% DMSO/media alone to each well of the plate. The plate was mixed gently on a plate shaker and then preincubated at 37° C., 5% CO2 for 1 hour. A 2.25× stock of MMS (Sigma Cat #129925-5G) plus Compound 1 in media was prepared by diluting a 100 mg/mL stock of MMS prepared in 100% DMSO into growth media containing 1× Compound 1 compound. […] Nuclear PAR accumulation was evaluated by imaging the plates on an ImageXpress Pico automated cell imaging system (Molecular Devices, San Jose, CA, USA).
Four fields for each well were acquired at 20× magnification resulting in at least 1,000 cells analyzed per well. Percent PAR positive cells were calculated using CellReporterXpress software (Molecular Devices, San Jose, CA, USA) using nuclei detection by DAPI image segmentation then setting a fluorescence intensity threshold for PAR. […]

The test system of a further assay is Parental SNU601 cells. The assay is described as follows: 6-day proliferation, nuclei count, parental line. It is filed as cell-based. To be noted: Homo sapiens, SNU-601, 144 h, read-out: IC50 inhibition of proliferation. The procedure: The SNU601 gastric carcinoma cell line (Creative Bioarray, Cat #CSC-C9686L) was cultured in RPMI media containing glutamax, 10% fetal bovine serum, and 1% penicillin/streptomycin at 37° C., 5% CO2. To generate a PARP inhibitor resistant cell line, an IC20 concentration of niraparib was added to the culture media.
Compound 1 and the PARP inhibitor niraparib were tested in cellular proliferation assays using the parental SNU601 cell line and the SNU601 cell line with acquired PARPi resistance. For the proliferation assays, cells were plated in 96-well plates (Corning costar 3603) at 2500-5000 cells/well in normal growth media. The next day, compound dissolved in vehicle (0.5% DMSO in media) was added to generate a 7- to 10-point concentration curve with half-log dilutions and starting concentrations of 10 or 31.6 μM. After 6 days of compound or vehicle treatment, the cells were fixed with a solution of 8% paraformaldehyde, 0.2% Triton X-100 for 20 minutes. After washing the cells with PBS, the nuclei were stained by the addition of DAPI (4′,6-diamidino-2-phenylindole) and incubation for 20 minutes. The number of nuclei in each well were counted by imaging the plates on an Image Xpress Pico automated cell imaging system (Molecular Devices). The percent proliferation after treatment was determined by normalizing the number of nuclei in treated wells to the vehicle-treated wells. […]

The structures appear in SMILES notation.

Usually EC50 stands for the concentration giving half of the maximal effect. Turning to `[2H]C([2H])(c1cnn(C)c1)N1C(=O)c2cc(S(=O)(=O)NC3(C)CC3)ccc2N2C1=NC[C@H]2C` [Compound 1, (R)-1-methyl-4-((1-methyl-1H-pyrazol-4-yl)methyl-d2)-N-(1-methylcyclopropyl)-5-oxo-1,2,4,5-tetrahydroimidazo[1,2-a]quinazoline-7-sulfonamide], the half-maximal effective concentration (EC50) in the assay with HeLa cells stood at 14 nM. Besides, in the assay with Parental SNU601 cells, the IC50 stood at 210 nM.
